Assay results published in the supplement of paper PMC10307832.

Assays:
Experiment in all cases: relative viability (nuclei count vs DMSO), 5 days (fraction); higher = more cells survive
Serdemetan + Luminespib = compound: c1ccc2c(CCNc3ccc(Nc4ccncc4)cc3)c[nH]c2c1 [Serdemetan] + CCNC(=O)c1noc(-c2cc(C(C)C)c(O)cc2O)c1-c1ccc(CN2CCOCC2)cc1 [Luminespib] (partner 0.01 µM)
Outline: (§1)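 Values are medians from duplicate plates. Each reflects relative viability, defined as the nuclei count of treated wells over that of vehicle wells. Lung cancer cell lines in 1536-well plates were pin-tool dosed one day after seeding with one drug alone or with a fixed anchor-drug dose plus five library-drug doses (not always all listed) in √10 steps, then fixed, stained and imaged at 4× after 5 days.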

Selisistat + Lapatinib = compound: C1CC(C2=C(C1)C3=C(N2)C=CC(=C3)Cl)C(=O)N [Selisistat] + CS(=O)(=O)CCNCc1ccc(-c2ccc3ncnc(Nc4ccc(OCc5cccc(F)c5)c(Cl)c4)c3c2)o1 [Lapatinib] (partner 2 µM)
Outline: as §1

Serdemetan + Palbociclib = compound: c1ccc2c(CCNc3ccc(Nc4ccncc4)cc3)c[nH]c2c1 [Serdemetan] + CC(=O)c1c(C)c2cnc(Nc3ccc(N4CCNCC4)cn3)nc2n(C2CCCC2)c1=O [Palbociclib] (partner 0.5 µM)
Outline: as §1

Selisistat + Palbociclib = compound: C1CC(C2=C(C1)C3=C(N2)C=CC(=C3)Cl)C(=O)N [Selisistat] + CC(=O)c1c(C)c2cnc(Nc3ccc(N4CCNCC4)cn3)nc2n(C2CCCC2)c1=O [Palbociclib] (partner 0.5 µM)
Outline: as §1

UMC-11
relative viability (Serdemetan + Luminespib; first compound 0.04 µM): 0.938
relative viability (Serdemetan + Luminespib; first compound 0.1265 µM): 1.01
relative viability (Serdemetan + Luminespib; first compound 4 µM): 0.852
relative viability (Selisistat + Lapatinib; first compound 0.4 µM): 0.921
relative viability (Selisistat + Lapatinib; first compound 1.265 µM): 0.999
relative viability (Selisistat + Lapatinib; first compound 4 µM): 0.893
relative viability (Selisistat + Lapatinib; first compound 12.65 µM): 0.94
relative viability (Selisistat + Lapatinib; first compound 40 µM): 1.06
relative viability (Serdemetan + Palbociclib; first compound 0.04 µM): 0.333
relative viability (Serdemetan + Palbociclib; first compound 0.1265 µM): 0.343
relative viability (Serdemetan + Palbociclib; first compound 0.4 µM): 0.381
relative viability (Serdemetan + Palbociclib; first compound 1.265 µM): 0.344
relative viability (Serdemetan + Palbociclib; first compound 4 µM): 0.281
relative viability (Selisistat + Palbociclib; first compound 0.4 µM): 0.348
relative viability (Selisistat + Palbociclib; first compound 1.265 µM): 0.34
relative viability (Selisistat + Palbociclib; first compound 4 µM): 0.299
relative viability (Selisistat + Palbociclib; first compound 12.65 µM): 0.319
relative viability (Selisistat + Palbociclib; first compound 40 µM): 0.349
